Assays:
[1] = test system: lung tissue of M. abscessus infected mice; experiment: Lung histopathology in chronic M. abscessus infection study; format: in vivo, SCID/Beige mice; details: amikacin-treated (100 mg/kg/day), FIG. 5B
Method: After 28 days of treatment with BisEDT, animals were euthanized by CO2 and secondary cardiac puncture to collect whole blood for quantitation of BisEDT concentration. Lungs and spleens from the CFU mice were homogenized with 1:1 H2O:Dey-Englev neutralizing broth to deactivate BisEDT. CFUs were determined after serial dilution. Mice for histology and the lung pair split, one half in formalin the other half weighed and snap frozen in liquid N2 to determine tissue concentration of BisEDT.
Samples for histology were processed by the Veterinary Diagnostic Laboratory. Slides were stained with hematoxylin-eosin (HE stain) for general pathology as well as a slide for acid-fast stain to highlight the mycobacterial infection in lung tissue.

[2] = test system: FITC-induced contact hypersensitivity; experiment: FITC-induced contact hypersensitivity in mice (ear swelling, histopathology, ear cytokines); format: in vivo, BALB/c mice; details: Group 3, 1 mg/mL topical; mean ± standard deviation
Method: Protocol: Male BALB/c mice at 8 weeks old are used in the study.
All animals, except those in Group 1 (Sham), were sensitized topically (TOP) on the shaved abdominal skin with 200 μL of 0.5% Fluorescein Isothiocyanate (FITC) dissolved in 20% tributyrin in acetone on Days 1 and 2. On Day 7, animals were challenged by applying 20 μL of 0.5% FITC solution onto both sides of the right ear. Animals in Group 1 received nothing.
Vehicle, BisEDT test articles and reference compound (tacrolimus) were administered topically (TOP) once daily (QD) from Day 6 to Day 9 for 4 consecutive days (1 hour before FITC challenge on Day 7). The vehicle for BisEDT was phosphate-buffered saline (PBS).
• 2.5 mg/mL BisEDT topical suspension • 1.25 mg/mL BisEDT topical suspension—prepared as a 1:1 dilution of 2.5 mg/mL BisEDT topical suspension in sterile water and vortexed to ensure homogeneity
Analysis: Ear swelling was measured by an experimenter blinded to treatment group, with a dial thickness micrometer gauge as an index of inflammation 30 min before dosing on Days 7, 8, 9 and 10. On Day 10, ear swelling was measured at 24 hours after the last dosing. Ear edema was calculated by subtracting the thickness of Day 7 (normal control) from Day n (treated ear). Percentage inhibition was calculated according to the formula: (Ic−It)/Ic×100, where Ic and It refer to the increase of ear thickness (mm) both in the control and treated animals. Body weight was recorded daily during the study period.
The animals were sacrificed on Day 10 and the ears were then harvested and weighed. Half of the right ear was fixed in 10% formalin for histopathology, and the other half was processed for cytokine measurement (IL-18, IL-6, and IL-10) using ThermoFisher Mouse ProcartaPlex Kit by Luminex.

[3] = test system: Hypo-InflammaSkin models; experiment: Ex vivo human skin model of psoriasis (Hypo-InflammaSkin), cytokine release in culture medium; format: cell-based; details: betamethasone 0.05% topical 25 μL daily Day 0-6
Text: Background: InflammaSkin® model is a validated psoriasis-like model developed to reproduce key features of pro-Th17/Th1 inflammation associated with psoriasis. It relies on the in situ activation of resident T-cell of normal skin biopsies and their further polarization into Th17/Th1 phenotype with the supplementation of culture medium with a cocktail of pro-inflammatory cytokines.
Model production and culture: 2 HypoSkin models of 15 mm in diameter (1.76 cm^2) were produced from 1 donor and cultured with 2 mL standard HypoSkin® medium. 20 Hypo-InflammaSkin models were produced from 1 donor by inducing in sit activation and Th17/Th1 polarization of skin resident T cells with proprietary cocktail and cultured with 2 mL Hypo-InflammaSkin® culture medium. The total treatable surface area of the models was 113 mm^2, and dosing of BisEDT took this into account based on dosing of the topical treatment. Models were maintained in standard cell culture conditions for the whole culture duration at 37° C., 5% CO2 and water saturation, with appropriate culture medium renewed every day.
Treatment Groups: Model Treatment: (1) HypoSkin® untreated control; (2) Hypo-InflammaSkin® untreated control; (3) topical betamethasone (positive control); (4) topical BisEDT—2.5 mg/mL (treatment applied every day from day 0 to 6; (5) topical BisEDT—1.25 mg/mL (treatment applied every day from day 3 to 6). N=3 per treatment group, except N=5 for Hypo-InflammaSkin® and N=1 for HypoSkin®.
Topical Treatment—Betamethasone (control): 25 μL of betamethasone was topically applied onto the surface of each skin model. Topical application was performed from Day 0 to Day 6 after removal of the previous treatment residues using a cotton swab.
Topical Treatment—BisEDT: 36 μL of the test compound was topically applied onto the surface of each skin model, massaging across the entire surface area for 1 minute, using a parafilm wrapped cotton swab; the compound was left on the skin. Topical application was performed from Day 0 to Day 6 (Treatment Group 4) or Day 3 to Day 6 (Treatment Group 5). A total of 9 models were topically treated.
Culture Media—culture media was collected on Day 3 prior to treatment application and on Day 7 and frozen at −80° C. A total of 42 culture media samples were collected.
IL-22 release: IL-22 release was measured in culture media using ELISA Human IL-22 Quantikine Kit (Bio-techne, ref D2200). Only samples from control conditions 1 to 3 were analyzed to assess donor's response to T cell activation. Each sample was analyzed in duplicate.
MSD Immunoassay—cytokine release (IL-2, IL-13, IL-15, IL-17A, IL-22, TNF-α, INF-γ, MIP-1β, and […]) in the culture medium was measured using the V-PLEX Plus Human Cytokine Kit (KI5089G, MesoScale Discovery) (FIGS. 13D-13S).

NCC[C@H](O)C(=O)N[C@@H]1C[C@H](N)[C@@H](O[C@H]2O[C@H](CN)[C@@H](O)[C@H](O)[C@H]2O)[C@H](O)[C@H]1O[C@H]1O[C@H](CO)[C@@H](O)[C@H](N)[C@H]1O [amikacin, reference compound]
lung histomorphologic observation [1]: infiltration of mononuclear phagocytes, interstitial edema, and interstitial hemorrhage

C=CC[C@@H]1/C=C(\C)C[C@H](C)C[C@H](OC)[C@H]2O[C@@](O)(C(=O)C(=O)N3CCCC[C@H]3C(=O)O[C@H](/C(C)=C/[C@@H]3CC[C@@H](O)[C@H](OC)C3)[C@H](C)[C@@H](O)CC1=O)[C@H](C)C[C@@H]2OC [Tacrolimus, tacrolimus]
Hyperkeratosis (lesion score) [2]: 0.88 ± 0.64
Hyperplasia (lesion score) [2]: 1.63 ± 0.52
Inflammation (lesion score) [2]: 1.38 ± 0.52
Necrosis (lesion score) [2]: 0.13 ± 0.35
Total histological score [2]: 4.00 ± 1.69

C[C@H]1C[C@H]2[C@@H]3CCC4=CC(=O)C=C[C@]4(C)[C@@]3(F)[C@@H](O)C[C@]2(C)[C@@]1(O)C(=O)CO [betamethasone, reference compound]
IL-22 release, average concentration (ELISA) [3]: 16.67 µg/mL

From patent publication US20260174780A1, “BISMUTH-THIOL COMPOSITIONS AND METHODS FOR TREATING INFLAMMATORY DISEASES” (Microbion Corporation, priority 2022, published 2026)
